Holding throughout (assay type): cell-based
Test [1] relates to ECV-304 (endothelial) cell line. Nature of the test: three day MTT cytotoxicity assay, ECV-304 endothelial. Particulars: ECV-304 endothelial cells, 72 hours. The method, then: (§1) A number of the Flavopereirine derivatives were tested for cytotoxicity against nine (9) human tumor cell lines. Briefly, a three day MTT cytotoxicity assay was performed, which is based on the principle of uptake of MTT (3-(4,5-dimethylthiazol-2-yl)-2,5-diphenyl tetrazolium bromide), a tetrazolium salt, by the metabolically active cells where it is metabolized by active mitochondria into a blue colored formazan product that is read spectrophotometrically. MIT was dissolved in phosphate buffered saline with a pH of 7.4 to obtain an MTT concentration of 5 mg/ml; the resulting mixture was filtered through a 0.22-micron filter to sterilize and remove a small amount of insoluble residue. For each type of tumor cell, 10000 to 15000 cells were seeded in a 96-well culture plate and incubated with the individual Flavopereirine derivatives in concentration ranging from 1-20 μg/ml in a CO2 incubator for a total of 72 hours. Control cells not treated with the Flavopereirine derivatives were similarly incubated. The assay was terminated by adding 100 μg (20 μl) of MTT to each well, then incubating for additional one hour, and finally adding 50 μl of 10% SDS-0.01N HCl to each well to lyse the cells and dissolve formazan. After incubating for one hour, the plate was read spectrophotometrically at 540 nm and the percentage of cytotoxicity calculated using the following formula:
(§2) Cytotoxicity percentage=100×[1-(X/R1)], where X=(absorbance of treated sample at 540 nm)−(absorbance of blank at 540 nm) R1=absorbance of control sample at 540 nm.
(§3) The IC50 Values of the cytotoxicity defined as the concentration at which 50% of the cells are killed in vitro was calculated for each cell line treated with each of the Flavopereirine derivatives.
In general terms: Tetrazolium dyes change colour on reduction, which living cells bring about.

The subject of test [2] is SW620 (colon) human tumor cell line. Nature of the test: three day MTT cytotoxicity assay, SW620 colon. The settings on record: 72 hours. The procedure: as §1, §2, §3
(§4) The cell lines are ovary (PA-1), breast (MCF-7), prostate (DU145), pancreas (MiaPaCa.2), oral cavity (KB), lung (L132), colon (SW620), and larynx (HeP2).

Test [3] concerns PA1 (ovary) human tumor cell line. In words: three day MTT cytotoxicity assay, PA1 ovarian. The settings on record: PA1 ovarian cells, 72 hours. The procedure:
as §1, §2, §3, §4

In test [4] the test system is L132 (lung) human tumor cell line. In words: three day MTT cytotoxicity assay, L132 lung. Particulars: L132 lung cells, 72 hours. The procedure: as §1, §2, §3, §4
For test [5], the system named is MiaPaca2 (pancreas) human tumor cell line. In words: three day MTT cytotoxicity assay, MiaPaca2 pancreas. The settings on record: 72 hours. The procedure:
as §1, §2, §3, §4

For test [6], the system named is KB (oral cavity) human tumor cell line. In words: three day MTT cytotoxicity assay, KB oral. The settings on record: KB oral cells, 72 hours. The procedure:
as §1, §2, §3, §4

Test [7] deals with Hep2 (larynx) human tumor cell line. In words: three day MTT cytotoxicity assay, Hep2 larynx. The settings on record: 72 hours. The method, then:
as §1, §2, §3, §4

In test [8] the test system is DU145 (prostate) human tumor cell line. In words: three day MTT cytotoxicity assay, DU145 prostate. Particulars: 72 hours. The procedure:
as §1, §2, §3, §4

Test [9] concerns MCF7 (breast) human tumor cell line. In words: three day MTT cytotoxicity assay, MCF7 breast. The settings on record: MCF7 breast cells, 72 hours. The method, then:
as §1, §2, §3, §4

Molecules are shown by their SMILES. Values after ≈ are worked out from the molar mass of the structure shown.

The text below walks through data of patent publication US20100256177A1, “Flavopereirine derivatives for cancer therapy” (priority 2004, published 2010).

Consider `Fc1ccc(COc2ccc3[n+](c2)CCc2c-3[nH]c3ccccc23)cc1.[O-][Cl+3]([O-])([O-])[O-]` [Compound 25], for which the “IC50 (μg/mL) of Flavoperereine derivatives in human tumor cell lines, ECV-304 Endothelial” value in test [1] was 24 µg/mL. For the same compound, the “IC50 (μg/mL) of Flavoperereine derivatives in human tumor cell lines, SW620 Colon” value in [2] (SW620 colon cells) was 44 µg/mL. In test [3], the “IC50 (μg/mL) of Flavoperereine derivatives in human tumor cell lines, PA1 Ovarian” value is 36 µg/mL. For the same compound, in [4], the “IC50 (μg/mL) of Flavoperereine derivatives in human tumor cell lines, L132 Lung” value came to 9 µg/mL. Further, the “IC50 (μg/mL) of Flavoperereine derivatives in human tumor cell lines, MiaPaca2 Pancreas” value in [5] (MiaPaca2 pancreas cells) came out at 30 µg/mL. The “IC50 (μg/mL) of Flavoperereine derivatives in human tumor cell lines, KB Oral” value in test [6] worked out at 8 µg/mL. Moreover, the “IC50 (μg/mL) of Flavoperereine derivatives in human tumor cell lines, Hep2 Larynx” value in [7] (Hep2 larynx cells) is 44 µg/mL. For the same compound, in test [8] (DU145 prostate cells), the “IC50 (μg/mL) of Flavoperereine derivatives in human tumor cell lines, DU145 Prostate” value worked out at 41 µg/mL. Moreover, the “IC50 (μg/mL) of Flavoperereine derivatives in human tumor cell lines, MCF7 Breast” value in [9] worked out at 34 µg/mL.

Regarding `C1=CC2=C3N=c4ccccc4=C3CCN2C=C1OCc1ccccc1` [Compound 23, 3-benzyloxy-6,7-dihydroindolo[2,3-a]quinolizine], the IC50 in test [1] (Homo sapiens, read-out: IC50 (μg/mL) of Flavoperereine derivatives in human tumor cell lines, ECV-304 Endothelial) was 16 µg/mL (≈ 49 µM); in test [2] (Homo sapiens, SW-620, SW620 colon cells, read-out: IC50 (μg/mL) of Flavoperereine derivatives in human tumor cell lines, SW620 Colon) it was 11 µg/mL (≈ 33.7 µM); in test [3] (Homo sapiens, read-out: IC50 (μg/mL) of Flavoperereine derivatives in human tumor cell lines, PA1 Ovarian), 31 µg/mL (≈ 95 µM); in test [4] (Homo sapiens, read-out: IC50 (μg/mL) of Flavoperereine derivatives in human tumor cell lines, L132 Lung), 20 µg/mL (≈ 61.3 µM); in test [5] (Homo sapiens, MIA PaCa-2, MiaPaca2 pancreas cells, read-out: IC50 (μg/mL) of Flavoperereine derivatives in human tumor cell lines, MiaPaca2 Pancreas) it was 10 µg/mL (≈ 30.6 µM); in [6] (Homo sapiens, read-out: IC50 (μg/mL) of Flavoperereine derivatives in human tumor cell lines, KB Oral), 12 µg/mL (≈ 36.8 µM). Moreover, the IC50 is 17 µg/mL (≈ 52.1 µM) in test [7] (Homo sapiens, HEp-2, Hep2 larynx cells, read-out: IC50 (μg/mL) of Flavoperereine derivatives in human tumor cell lines, Hep2 Larynx); 10 µg/mL (≈ 30.6 µM) in [8] (Homo sapiens, DU-145, DU145 prostate cells, read-out: IC50 (μg/mL) of Flavoperereine derivatives in human tumor cell lines, DU145 Prostate); 5 µg/mL (≈ 15.3 µM) in test [9] (Homo sapiens, read-out: IC50 (μg/mL) of Flavoperereine derivatives in human tumor cell lines, MCF7 Breast).
